The target of one experiment is DNA-PK (Homo sapiens (Human), UniProt P78527). Briefly: DNA-PK Enzyme-Linked Immunosorbent Assay (phosphorylation of GST-p53 (1-101) peptide). To be noted: ELISA. In kind it is biochemical. Here is the method: Assay of Compounds ATM and DNA-PK Inhibition
remove wash solution, turn plate upside down onto a thin paper towel and centrifuge at 1000 rpm for 1 min to absorb all wash buffer. Clean the bottom of plate with moist lint free paper. Scan plate immediately using ODYSSEY CLx (LI-COR) for the best results. DNA-PK Enzyme-Linked Immunosorbent Assay:
On day one, coat 96-well plate (ThermoFisher. Cat #: 442404) with GST-p53 (1-101) peptide (purified by Pharmaron, BCS department) by diluting 3 μg of GST-p53 each well with 0.1 M Na2CO3/NaHCO3, pH 9.6. Incubate the plate overnight at 4° C. The second day, remove coating buffer, wash 2× with PBST (1×PBS containing 0.1% Tween-20). Then add DNA-PK enzyme solution (Invitrogen, #PR9107A; the final DNA-PK concentration is 0.1 μg/mL), series dilution compounds (the final top concentration is 100 nM, 3 fold series dilution, with total 10 doses) and ATP solution (the final ATP concentration is 20 μM) to the 96-well plate. Incubate the plate at 25° C. for 1 hour. Then wash 3× with PBST (1×PBS containing 0.1% Tween-20). Block the plate with PBST+ 1% BSA at 4° C. overnight. The third day, wash 4× with PBST (1×PBS containing 0.1% Tween-20). Then add Phospho-p53 primary antibody (cell signaling Technology, #9286, Phospho-p53 (Ser15) (16G8) Mouse mAb) (1/1000) to each well. Seal with plate and incubate the plate for 1 h at 37° C. Wash 4× with PBST (1×PBS containing 0.1% Tween-20), add 100 μL of HRP-linked secondary antibody (Cell signaling Technology, #7076, Anti-mouse IgG, HRP-linked Antibody) (1/1000) to each well. Seal with tape and incubate the plate for 30 min at 37° C. Wash 4× with PBST (1×PBS containing 0.1% Tween-20), add 100 μL of TMB (Cell signaling Technology, #7004) substrate to each well. Seal with tape and incubate the plate for 10 min at 37° C. Then add 100 μL of Stop solution (Cell signaling Technology, #7002) to each well. Read the plate at 450 nm to detect absorption.
On the technique in general: ELISA stands for enzyme-linked immunosorbent assay.

A further experiment concerns the target ATM (Homo sapiens (Human), UniProt Q13315). Briefly: ATM in Cell Western Assay (pKAP1 in etoposide-treated MCF-7 cells). The class given is cell-based. The procedure, abridged:
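Cells received compounds in a 10-dose, 3-fold series from a 1 μM final top concentration, then 100 μM etoposide, for 1 hr at 37° C. They were then fixed with paraformaldehyde and permeabilized with 0.1% Triton X-100. After immunostaining, plates were scanned on an infrared imager.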

[1] abbreviates: MCF-7 cells, etoposide 100 μM, 1 hr, pKAP1 readout.

Structures are written as SMILES. Structures can show the parent of a compound that is named as a salt. Some results are limits rather than exact numbers.

Chain of ATM (Q13315 whole entry): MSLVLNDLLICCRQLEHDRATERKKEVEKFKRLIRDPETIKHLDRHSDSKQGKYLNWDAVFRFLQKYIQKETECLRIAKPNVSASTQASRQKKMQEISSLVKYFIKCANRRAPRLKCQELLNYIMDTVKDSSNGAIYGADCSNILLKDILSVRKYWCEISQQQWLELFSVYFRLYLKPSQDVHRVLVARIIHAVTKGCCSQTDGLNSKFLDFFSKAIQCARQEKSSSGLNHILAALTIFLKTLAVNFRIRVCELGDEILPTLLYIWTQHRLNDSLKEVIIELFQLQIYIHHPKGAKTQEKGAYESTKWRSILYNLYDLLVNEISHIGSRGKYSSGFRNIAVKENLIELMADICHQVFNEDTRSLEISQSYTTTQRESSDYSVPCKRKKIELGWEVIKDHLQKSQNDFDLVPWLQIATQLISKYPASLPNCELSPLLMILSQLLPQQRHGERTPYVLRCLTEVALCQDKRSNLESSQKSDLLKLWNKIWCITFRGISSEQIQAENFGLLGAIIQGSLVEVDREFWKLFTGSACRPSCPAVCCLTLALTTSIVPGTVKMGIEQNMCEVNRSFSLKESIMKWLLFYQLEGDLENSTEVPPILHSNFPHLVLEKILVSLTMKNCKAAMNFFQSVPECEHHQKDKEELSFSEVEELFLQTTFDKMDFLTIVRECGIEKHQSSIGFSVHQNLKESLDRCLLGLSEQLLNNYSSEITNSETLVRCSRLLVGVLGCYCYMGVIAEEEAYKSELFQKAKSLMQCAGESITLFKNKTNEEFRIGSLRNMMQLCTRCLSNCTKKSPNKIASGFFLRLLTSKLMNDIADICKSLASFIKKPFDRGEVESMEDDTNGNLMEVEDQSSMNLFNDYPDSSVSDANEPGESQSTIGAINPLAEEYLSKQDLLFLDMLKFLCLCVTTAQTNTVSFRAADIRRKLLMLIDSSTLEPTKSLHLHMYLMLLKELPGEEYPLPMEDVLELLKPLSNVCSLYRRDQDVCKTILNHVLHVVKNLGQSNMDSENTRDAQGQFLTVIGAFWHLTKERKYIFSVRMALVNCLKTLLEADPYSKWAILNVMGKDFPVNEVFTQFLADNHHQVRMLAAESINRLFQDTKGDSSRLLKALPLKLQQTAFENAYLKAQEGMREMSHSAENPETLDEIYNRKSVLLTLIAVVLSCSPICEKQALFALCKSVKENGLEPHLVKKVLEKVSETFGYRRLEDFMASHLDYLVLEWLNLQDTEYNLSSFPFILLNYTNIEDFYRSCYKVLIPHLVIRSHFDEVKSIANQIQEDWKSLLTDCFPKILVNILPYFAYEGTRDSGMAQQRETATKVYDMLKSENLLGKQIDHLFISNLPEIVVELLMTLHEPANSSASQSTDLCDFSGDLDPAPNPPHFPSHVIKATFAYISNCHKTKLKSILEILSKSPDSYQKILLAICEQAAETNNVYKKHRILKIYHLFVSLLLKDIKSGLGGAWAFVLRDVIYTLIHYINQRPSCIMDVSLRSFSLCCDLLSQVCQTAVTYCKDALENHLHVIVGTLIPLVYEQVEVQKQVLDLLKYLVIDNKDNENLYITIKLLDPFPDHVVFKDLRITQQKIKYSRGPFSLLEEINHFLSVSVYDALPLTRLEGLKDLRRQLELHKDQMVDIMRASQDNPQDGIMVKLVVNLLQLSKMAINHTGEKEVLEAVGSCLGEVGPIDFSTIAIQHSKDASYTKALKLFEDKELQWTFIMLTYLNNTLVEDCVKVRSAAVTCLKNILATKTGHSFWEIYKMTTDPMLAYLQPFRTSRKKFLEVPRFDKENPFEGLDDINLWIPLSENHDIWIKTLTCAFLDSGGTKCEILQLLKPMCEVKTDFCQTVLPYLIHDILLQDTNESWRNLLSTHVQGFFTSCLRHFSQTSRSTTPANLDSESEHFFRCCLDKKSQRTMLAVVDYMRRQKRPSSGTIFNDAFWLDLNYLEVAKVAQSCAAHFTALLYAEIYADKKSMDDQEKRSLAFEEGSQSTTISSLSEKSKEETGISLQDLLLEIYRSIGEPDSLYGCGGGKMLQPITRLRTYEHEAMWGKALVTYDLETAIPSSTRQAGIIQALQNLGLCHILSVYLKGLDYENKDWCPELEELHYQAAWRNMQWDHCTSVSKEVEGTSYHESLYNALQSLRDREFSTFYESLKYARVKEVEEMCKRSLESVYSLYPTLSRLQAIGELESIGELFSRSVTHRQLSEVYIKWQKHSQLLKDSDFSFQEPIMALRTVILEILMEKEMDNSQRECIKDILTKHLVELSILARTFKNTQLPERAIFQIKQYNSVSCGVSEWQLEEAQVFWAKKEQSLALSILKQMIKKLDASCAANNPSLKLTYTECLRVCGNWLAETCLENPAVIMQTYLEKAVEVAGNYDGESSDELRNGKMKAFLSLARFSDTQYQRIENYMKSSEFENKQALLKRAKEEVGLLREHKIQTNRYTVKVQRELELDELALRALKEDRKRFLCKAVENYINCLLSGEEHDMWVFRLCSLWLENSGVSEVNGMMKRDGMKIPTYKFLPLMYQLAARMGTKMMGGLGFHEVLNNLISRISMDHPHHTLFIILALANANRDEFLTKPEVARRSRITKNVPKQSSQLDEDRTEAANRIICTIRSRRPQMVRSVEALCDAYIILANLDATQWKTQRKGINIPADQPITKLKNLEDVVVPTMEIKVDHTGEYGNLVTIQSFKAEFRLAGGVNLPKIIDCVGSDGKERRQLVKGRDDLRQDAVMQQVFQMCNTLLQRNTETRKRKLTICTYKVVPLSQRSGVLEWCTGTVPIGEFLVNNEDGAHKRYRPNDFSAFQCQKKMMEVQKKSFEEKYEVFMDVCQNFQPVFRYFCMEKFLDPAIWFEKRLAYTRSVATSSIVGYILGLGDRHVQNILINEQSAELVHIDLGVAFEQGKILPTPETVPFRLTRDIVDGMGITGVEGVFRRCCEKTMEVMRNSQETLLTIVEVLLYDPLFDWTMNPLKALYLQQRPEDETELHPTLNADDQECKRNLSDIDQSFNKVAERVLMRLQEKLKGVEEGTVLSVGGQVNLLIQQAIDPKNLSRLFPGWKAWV

One may read the IC50 as the concentration needed to halve the response being measured. Read a high IC50 as weaker potency. `CN(C)CCCOc1ncc(-c2ccc3ncc4c(c3c2)C2(CCC2)C(=O)N4C)cc1NS(=O)(=O)c1cnn(C)c1` [Example 166, N-(2-(3-(Dimethylamino)propoxy)-5-(3′-methyl-2′-oxo-2′,3′-dihydrospiro [cyclobutane-1,1′-pyrrolo [2,3-c]quinolin]-8′-yl)pyridin-3-yl)-1-methyl-1H-pyrazole-4-sulfonamide hydrochloride]: the IC50 against DNA-PK (ATP 20 μM) and at ATM (setting [1]) was 1 to 100 nM throughout.

For `CN(C)CCCOc1ncc(-c2ccc3ncc4c(c3c2)C2(CCC2)C(=O)N4C)cc1NS(=O)(=O)c1ccc(O)cc1` [Example 220, N-(2-(3-(Dimethylamino)propoxy)-5-(3′-methyl-2′-oxo-2′,3′-dihydrospiro [cyclobutane-1,1′-pyrrolo[2,3-c]quinolin]-8′-yl)pyridin-3-yl)-4-hydroxybenzenesulfonamide hydrochloride], the IC50 is under 0.5 nM on DNA-PK (ATP 20 μM) and 1 to 100 nM at ATM (setting [1]).

As to `CN1C(=O)C2(CC2)c2c1cnc1ccc(-c3cnc(OCCCN4CCCCC4)c(NS(=O)(=O)c4ccccc4)c3)cc21` [Example 67, N-(5-(3′-Methyl-2′-oxo-2′,3′-dihydrospiro[cyclopropane-1,1′-pyrrolo[2,3-c]quinolin]-8′-yl)-2-(3-(piperidin-1-yl)propoxy)pyridin-3-yl)benzenesulfonamide], the figures for the IC50 at DNA-PK (ATP 20 μM) and on ATM (setting [1]) were under 0.5 nM and 0.5 to 1 nM, respectively.

With `COc1ccc(S(=O)(=O)Nc2cc(-c3ccc4ncc5c(c4c3)C3(CC3)C(=O)N5C)cnc2OCCCN(C)C)cc1` [Example 93, N-(2-(3-(Dimethylamino)propoxy)-5-(3′-methyl-2′-oxo-2′,3′-dihydrospiro [cyclopropane-1,1′-pyrrolo[2,3-c]quinolin]-8′-yl)pyridin-3-yl)-4-methoxybenzenesulfonamide], the IC50 is under 0.5 nM against DNA-PK (ATP 20 μM) and 1 to 100 nM against ATM (setting [1]).

On to `CN(C)CCCOc1ncc(-c2ccc3ncc4c(c3c2)C2(CC2)C(=O)N4C)cc1NS(=O)(=O)c1cc(Cl)cc(Cl)c1` [Example 125, 3.5-Dichloro-IN-(2-(3-(dimethylamino)propoxy)-5-(3′-methyl-2′-oxo-2′,3′-dihydrospiro[cyclopropane-1,1′-pyrrolo[2,3-c]quinolin]-8′-yl)pyridin-3-yl)benzenesulfonamide], for which the figures for the IC50 on DNA-PK (ATP 20 μM) and against ATM (setting [1]) were under 0.5 nM and 1 to 100 nM, respectively.

With `CN(C)CCCOc1ncc(-c2ccc3ncc4c(c3c2)C2(CCC2)C(=O)N4C)cc1NS(=O)(=O)c1cc(F)cc(Cl)c1` [Example 171, 3-Chloro-N-(2-(3-(dimethylamino)propoxy)-5-(3′-methyl-2′-oxo-2′,3′-dihydrospiro[cyclobutane-1,1′-pyrrolo[2,3-c]quinolin]-8′-yl)pyridin-3-yl)-5-fluorobenzenesulfonamide hydrochloride], the IC50 at DNA-PK (ATP 20 μM) lay within 0.5 to 1 nM; against ATM (setting [1]), 1 to 100 nM.

`CN(C)CCCOc1ncc(-c2ccc3ncc4c(c3c2)C2(CCC2)C(=O)N4C)cc1NS(=O)(=O)C1COC1` [Example 205, N-(2-(3-(Dimethylamino)propoxy)-5-(3′-methyl-2′-oxo-2′,3′-dihydrospiro[cyclobutane-1,1′-pyrrolo[2,3-c]quinolin]-8′-yl)pyridin-3-yl)oxetane-3-sulfonamide]: the IC50 was under 0.5 nM on DNA-PK (ATP 20 μM) and 1 to 100 nM on ATM (setting [1]).

For `CN(C)CCCOc1ccc(-c2ccc3ncc4c(c3c2)C2(CC2)C(=O)N4C)cc1NS(=O)(=O)c1cccc(F)c1` [Example 90], the values for the IC50 on DNA-PK (ATP 20 μM) and at ATM (setting [1]) were 1 to 100 nM and 0.5 to 1 nM, respectively.

As for `CC(C)NCCOc1ncc(-c2cc3c(cc2F)ncc2c3[C@]3(C[C@H](Nc4ccc(Cl)cc4)C3)C(=O)N2C)cc1NS(C)(=O)=O` [Example 461, cis-N-(5-(3-((4-Chlorophenyl)amino)-7′-fluoro-3′-methyl-2′-oxo-2′,3′-dihydrospiro[cyclobutane-1,1′-pyrrolo[2,3-c]quinolin]-8′-yl)-2-(2-(isopropylamino)ethoxy)pyridin-3-yl)methanesulfonamide], the IC50 at DNA-PK (20 μM ATP) and on ATM (pKAP1 in etoposide-treated MCF-7 cells) was 1 to 100 nM in each case.

For the compound `CN1CCN(c2ncc(-c3ccc4ncc5c(c4c3)C3(CCC3)C(=O)N5C)cc2NS(=O)(=O)c2ccccc2)CC1` [Example 243, N-(5-(3′-Methyl-2′-oxo-2′,3′-dihydrospiro[cyclobutane-1,1′-pyrrolo[2,3-c]quinolin]-8′-yl)-2-(4-methylpiperazin-l-yl)Pyridin-3-yl)benzenesulfonamide], the IC50 on DNA-PK (ATP 20 μM) and against ATM (setting [1]) was 1 to 100 nM each time.

For the compound `CN(C)CCCOc1ncc(-c2ccc3ncc4c(c3c2)C2(CC2)C(=O)N4C)cc1NS(=O)(=O)C1CC1` [Example 29, N-(2-(3-(Dimethylamino)propoxy)-5-(3′-methyl-2′-oxo-2′,3′-dibydrospiro [cyclopropane-1,1′-pyrrolo[2,3-c]quinolin]-8′-yl)pyridin-3-yl) cyclopropanesulfonamide], the IC50 on DNA-PK (ATP 20 μM) and against ATM (setting [1]) was 1 to 100 nM throughout.

In the case of `CN1C(=O)C2(CC2)c2c1cnc1ccc(-c3ccc4ncccc4c3)cc21` [Example 22, 3′-Methyl-8′-(quinolin-6-yl)spiro[cyclopropane-1,1′-pyrrolo[2,3-c]quinolin]-2′(3′-H)-one], the IC50 on DNA-PK (ATP 20 μM) and against ATM (setting [1]) was 1 to 100 nM throughout.

As to `COCCS(=O)(=O)Nc1cc(-c2ccc3ncc4c(c3c2)C2(CC2)C(=O)N4C)cnc1OCCCN(C)C` [Example 83, N-(2-(3-(Dimethylamino)propoxy)-5-(3′-methyl-2′-oxo-2′,3′-dihydrospiro [cyclopropane-1,1′-pyrrolo[2,3-c]quinolin]-8′-yl)pyridin-3-yl)-2-methoxyethane-1-sulfonamide], the IC50 was 1 to 100 nM against DNA-PK (ATP 20 μM) and under 0.5 nM against ATM (setting [1]).

For the compound `CN(C)CCCOc1ncc(-c2ccc3ncc4c(c3c2)C2(CCC2)C(=O)N4C)cc1NS(=O)(=O)C(F)F` [Example 247, N-(2-(3-(Dimethylamino)propoxy)-5-(3′-methyl-2′-oxo-2′,3′-dihydrospiro [cyclobutane-1,1′-pyrrolo[2,3-c]quinolin]-8′-yl)pyridin-3-yl)-1,1′-difluoromethane-sulfonamide], the IC50 is under 0.5 nM against DNA-PK (ATP 20 μM) and 1 to 100 nM at ATM (setting [1]).

Take `CCN(CC)S(=O)(=O)Nc1cc(-c2ccc3ncc4c(c3c2)C2(CCC2)C(=O)N4C)cnc1OCCCN(C)C` [Example 183, 8′-{5-[(Diethylsulfanioyl)amino]-6-[3-(dimethylamino)propoxy]pyridine-3-yl}-3′-methyl-2′,3′-dihydrospiro [cyclobutane-1,1′-pyrrolo[2,3-c]quinoline]-2′-one]: the IC50 at DNA-PK (ATP 20 μM) and against ATM (setting [1]) was 1 to 100 nM each time.

For `CN1C(=O)C2(CCC2)c2c1cnc1ccc(-c3cnc(OCCCN4CCCCC4)c(NS(=O)(=O)N(C)C)c3)cc21` [Example 180, hydrochloride], the IC50 lay within 0.5 to 1 nM against DNA-PK (ATP 20 μM) and 1 to 100 nM on ATM (setting [1]).

Take `CN(C)CCCOc1ncc(-c2ccc3ncc4c(c3c2)C2(CC2)C(=O)N4C)cc1NS(=O)(=O)Cc1ccccc1` [Example 103, N-(2-(3-(Dimethylamino)propoxy)-5-(3′-methyl-2′-oxo-2′,3′-dihydrospiro [cyclopropane-1,1′-pyrrolo[2,3-c]quinolin]-8′-yl)pyridin-3-yl)-1-phenylmethanesulfonamide]: the IC50 against DNA-PK (ATP 20 μM) and against ATM (setting [1]) was 1 to 100 nM each time.

Take `CN(C)CCCOc1ncc(-c2ccc3ncc4c(c3c2)C2(CCC2)C(=O)N4C)cc1NS(=O)(=O)c1ccc(S(F)(F)(F)(F)F)cc1` [Example 134, N-(2-(3-(Dimethylamino)propoxy)-5-(3′-methyl-2′-oxo-2′,3′-dihydrospiro[cyclobulane-1,1′-pyrrolo[2,3-c]quinolin]-8′-yl)pyridin-3-yl)-4-(pentafluoro-16-sulfaneyl) benzenesulfonamide]: the IC50 on DNA-PK (ATP 20 μM) and at ATM (setting [1]) was 1 to 100 nM in each case.

On to `CN1C(=O)C2(CCC2)c2c1cnc1cc(F)c(-c3cnc(N4CC(N(C)C)C4)c(NS(C)(=O)=O)c3)cc21` [Example 317, N-(2-(3-(Dimethylamino)azetidin-1-yl)-5-(7′-fluoro-3′-methyl-2′-oxo-2′,3′-dihydrospiro[cyclobulane-1,1′-pyrrolo[2,3-c]quinolin]-8′-yl)pyridin-3-yl)methanesulfonamide hydrochloride], for which the IC50 against DNA-PK (ATP 20 μM) and against ATM (setting [1]) was 1 to 100 nM throughout.

The record behind these values is US12187742B2 (XRAD Therapeutics, Inc., priority 2018, dated 2025).
